Experimental data from PMC6331978 (Molecules, 2015).
Entries after “also recorded” stand apart in the source; their conditions may differ. Like-named read-outs stand apart in the source and are kept apart here.

How the values were obtained:
[1] = test system: CaCo-2 cells; assay: Antiproliferative effect in CaCo-2 cells, neutral red uptake (NRU) test; assay type: cell-based, human; settings: for IC50: Homo sapiens; for Inhibition of cancer cell proliferation: 0–50 µg/mL, 72 h
Procedure: Firstly, the antiproliferative effect of five sesquiterpenes CAR, CAO, HUM, NER, VAL was tested in CaCo-2 cancer cells. The cells were incubated with individual sesquiterpenes in concentrations 0–50 µg/mL for 72 h. After incubation, a number of viable cells was assayed using a NRU test and IC50 values were calculated.
CaCo-2 cancer cells were incubated with DOX alone (concentrations 0.25, 0.5, 1, 2, 4 µM), with individual sesquiterpenes alone (concentrations 6.125, 12.5, 25, 50 µg/mL) and with DOX (concentrations 0.25, 0.5, 1, 2 µM) in combinations with each sesquiterpene (concentrations 6.125, 12.5, 25, 50 µg/mL). […] After 72-h incubation, the number of viable cells was assayed using NRU.
The human epithelial colorectal adenocarcinoma line CaCo-2 was purchased from ATCC (supplier for Czech Republic: LGC Standards, Lomianki, Poland). […] The CaCo-2 cells were cultured in MEM supplemented with 10% heat-inactivated FBS, 1% non-essential amino acid, 1.5% L-glutamine solution and 0.5% penicillin/streptomycin. Cells were grown in T-75 cm^2 culture flasks in a humidified atmosphere containing 5% CO2 at 37 °C.
Pure commercially available sesquiterpenes and DOX were pre-dissolved in DMSO or in pure ethanol. The concentration of organic solvent in medium was 0.1%. The cells were exposed to various concentrations of the tested compounds in culture medium. The cells cultured in medium with pure DMSO or ethanol without tested compounds were used as control samples. […] The number of viable CaCo-2 cells was assayed using the neutral red uptake test after 72 h expositions.
Data are presented as means ± S.D. of a given number of experiments. Statistical significance (evaluated using a one-way ANOVA) was acceptable to a level of p < 0.05. The concentration inducing a 50% decrease of cell viability as compared to control (IC50) was calculated using GraphPad Prism 6.0 nonlinear regression.

[2] = test system: CaCo-2 cells; assay: Intracellular ROS formation (H2DCF-DA) in CaCo-2 cells; assay type: cell-based, human; settings: for Effect on ROS formation, sesquiterpene alone: 10 µg/mL; for Effect of DOX + sesquiterpene on ROS formation compared with DOX alone: DOX 1 µM + sesquiterpene 10 µg/mL
From the text: (§1) To assess ROS generation in CaCo-2 cells or […], a measurement of 2′,7′-dichlorodihydrofluorescein-diacetate (H2DCF-DA) oxidation was used. This non-fluorescent reagent diffuses passively through the plasma membrane into the cell, where the acetate groups are cleaved by intracellular esterases. The compound can then be oxidized by ROS formed within the cell (particularly by hydroxyl radicals, •OH) to form fluorescent dichlorofluorescein (DCF), while the fluorescence intensity is proportional to the ROS level. CaCo-2 cells or hepatocytes (seeded in a 96-well plate at a density of 2500 cells/well) were washed by PBS buffer and loaded with 100 µL of the tested substances (individual sesquiterpenes, DOX alone, DOX + sesquiterpene combinations pre-dissolved in DMSO) in PBS buffer. After 12-h incubation, 100 µL of 5 μM H2DCF-DA were added. After another incubation of 30-min, fluorescence intensity was measured for 50 min at 37 °C using a microplate reader Tecan Infinite M200 at λex = 485 nm and λem = 525 nm. Cells treated with PBS only with pure DMSO (as a solvent) were used as control samples. The 3% H2O2 solution was used as a positive control.

[3] = test system: hepatocytes; assay: Intracellular ROS formation (H2DCF-DA) in hepatocytes; assay type: cell-based, rat; settings: DOX 1 µM
From the text: as §1

[4] = test system: primary culture of rat hepatocytes; assay: Viability of primary culture of rat hepatocytes, MTT test; settings: 24 h; for Hepatotoxicity / viability of hepatocytes: sesquiterpene alone 0–50 µg/mL
Procedure: (§2) The toxicity of DOX alone as well as combinations of DOX and sesquiterpene was tested in primary culture of rat hepatocytes. […] The number of viable cells was measured after 24 h exposition of cells to various concentrations of the tested compounds.
The rat hepatocytes were obtained from rat liver by the two-step collagenase method. Briefly, the liver was perfused with salt solution (0.14 M NaCl, 5.0 mM KCl, 0.8 mM MgSO4) in Na^+/K^+ phosphate buffer (0.2 mM, pH 7.4) containing a calcium binding component (0.4 mM EGTA). […] The collagenase perfusion was proceeded for 5–6 min. After perfusion the liver was transferred to a medium containing BSA and the hepatocytes were released. The obtained suspension was filtered through a nylon mesh and centrifuged at 40× g for 5 min at 4 °C. The pellet was re-suspended in chilled buffer and the washing procedure was twice repeated. Finally, three million viable (75%–85%) cells in 3 mL of culture medium ISOM (1:1 mixture of Ham F12 and Williams’ E) were placed into 96-well plastic dishes. The fetal calf serum was added in the culture medium (5%). Cultures were maintained without the tested compounds for 4 h at 37 °C in a humid atmosphere of air and 5% CO2.
Pure commercially available sesquiterpenes and DOX were pre-dissolved in DMSO or in pure ethanol. The concentration of organic solvent in medium was 0.1%. The cells were exposed to various concentrations of the tested compounds in culture medium. The cells cultured in medium with pure DMSO or ethanol without tested compounds were used as control samples. […] The viability of the hepatocytes was tested using a MTT assay after 24 h expositions.
(§3) The mitochondria of living cells are able to reduce yellow MTT (3-(4,5-dimethylthiazol-2-yl)-2,5-diphenyltetrazolium bromide) to purple formazan. The cells were cultured in 96-well plates. After 24 h exposure, 25 µL of MTT solution (3 mg of MTT in 1 mL of PBS) were added to each well. The plates were incubated for an additional 2 h at 37 °C, at which time the medium was removed and the formed formazan was dissolved in 50 µL of 0.08 M HCl in isopropanol by 30 min shaking. The absorbance in each well was read at 570 and 690 nm using a spectrophotometer (Tecan Infinite M200).

[5] = test system: CaCo-2 cells; assay: Combination of DOX and sesquiterpenes in CaCo-2 cells, NRU test, combination indexes (CalcuSyn); assay type: cell-based, human; settings: CaCo-2, 72 h; for Combined effect with DOX (combination index, CI): NRU, CalcuSyn
Procedure: Concentrations of DOX and sesquiterpenes were selected according to the Chou-Talalay Method. After 72-h incubation, the number of viable cells was assayed using NRU. […] When DOX was used in combinations with individual sesquiterpenes, a significant increase of DOX efficacy was observed.
With the aim of evaluating and quantifying the combined effect of DOX and sesquiterpenes, combination indexes were calculated using CalcuSyn (ver. 1.1, Biosoft, Cambridge, UK); the plot of combination indexes (CI) vs. fractions of dead cells (Fa) is presented in Figure 5. […] It is important to emphasize that synergy of anticancer agents at high effect levels (Fa > 0.8) is more relevant to therapy than at low levels.
Figure 5 Combination indexes (CI) of DOX and sesquiterpenes in dependence on fraction of affected CaCo-2 cells (Fa). Incubations lasted for 72 h. Data were calculated using CalcuSyn software.
The cells were cultured in 96‑well plates. After 72 h exposure, the medium was removed and 100 µL of neutral red-containing medium was added into each well, at which time the plates were incubated for an additional 3 h at 37 °C. The cells were washed with 100 µL of PBS, then fixed in a solution of 0.5% formaldehyde/1% calcium chloride for 15 min. The neutral red dye was extracted from the viable cells with a solvent (50% ethanol/1% acetic acid) by shaking for 30 min at room temperature. The absorbance of solubilized dye was measured using a spectrophotometer (Infinite M200, Tecan, Männedorf, Switzerland) at 540 nm. Each sample was assayed in 6 parallels and 3 independent experiments were performed. The viabilities of the treated cells were expressed as a percentage of untreated controls (100%). The effect of sesquiterpenes on DOX efficacy was evaluated using CalcuSyn software.

[6] = test system: CaCo-2 cells; assay: DOX accumulation in CaCo-2 cells (UHPLC); assay type: cell-based, human; settings: 3 h; for Effect on intracellular DOX concentration: DOX 6 µM + sesquiterpene 10 or 50 µg/mL
Procedure: The effect of sesquiterpenes on DOX accumulation in cells was also studied. Concentrations of DOX within cells after a 3-h incubation of CaCo-2 cells, hepatocytes with DOX alone and DOX + sesquiterpene combinations were analyzed. […] On the other hand, the addition of all sesquiterpenes to DOX led to a concentration-dependent increase of DOX concentration within CaCo-2 cells. […] CAO (at concentration 50 µg/mL) was able to enhance the intracellular DOX concentration in CaCo-2 cells at a rate of 3.6-times.
The suspension of CaCo-2 cells or hepatocytes (600 µL; density 5000 cells/100 µL) per well was set to a 12-well plate. After 48 h, 600 µL of solutions in medium of the tested substances were added. The cells were treated with DOX (6 µM) alone, or in combination with individual sesquiterpenes (10 or 50 µg/mL) for 3 h. At the end of the experiment, the medium was removed and cells were washed with 500 µL of PBS. One hundred µL of lysing buffer (25 mM Tris, 150 mM NaCl, 1% Triton, pH 7.4) were then added, at which time the cells were lysed for 15 min, then mixed with 300 µL of ice-cold methanol and centrifuged (10,000× g, 10 min, 4 °C). The supernatant was filtered through a 0.22 µm filter and the filtrate was used for analysis.
DOX was detected on an Agilent 1290 Series UHPLC chromatographic system (Agilent, Santa Clara, CA, USA) equipped with a Zorbax C18 Eclipse Plus (2.1 × 50 mm, 1.8 μm) column with a 1290 Infinity inline filter (Agilent). The HPLC method used by was adapted to a UHPLC system: Isocratic elution of 1.0 mL/min by 0.1% formic acid in water and acetonitrile in ratio 76:24; 30 °C thermostated column compartment; fluorescence detection at λex = 480 nm and λem = 560 nm. Chemical standards were purchased from Toronto Research Chemicals (Toronto, ON, Canada).

[7] = test system: primary culture of rat hepatocytes; assay: Effect of sesquiterpenes on DOX toxicity in hepatocytes, MTT test; settings: 24 h; for Effect on DOX toxicity in hepatocytes at 0.5 µM DOX: 0.5 µM DOX + 12.5 µg/mL sesquiterpene; for Effect on DOX toxicity in hepatocytes at other DOX concentrations: DOX 0.25, 1, 2 µM + sesquiterpene
Procedure: as §2
Data presented as percentage of control cells (=100%) represent the mean ± S.D. from 2 independent experiments with 6 parallels in each (↑ significant increase; ↓ significant decrease).
Pure commercially available sesquiterpenes and DOX were pre-dissolved in DMSO or in pure ethanol. The concentration of organic solvent in medium was 0.1%. The cells were exposed to various concentrations of the tested compounds in culture medium. The cells cultured in medium with pure DMSO or ethanol without tested compounds were used as control samples. DMSO (10%) served as a positive control in both the primary culture of hepatocytes and of CaCo-2 cells. […] The viability of the hepatocytes was tested using a MTT assay after 24 h expositions.
as §3

[8] = CaCo-2 cells, 72 h incubation, NRU test, concentrations 0–50 µg/mL, read-out: IC50

| Structure (SMILES) | IC50 ([1]; CaCo-2 cells, 72-h incubation, NRU, DOX alone, read-out: IC50 (antiproliferative effect of DOX)) [nM] | IC50 [1, 8] [µg/mL] | Effect of DOX alone on ROS production ([2]; DOX 1 µM) | Effect of DOX alone on ROS production [3] | Hepatotoxicity of DOX alone ([4]; DOX 0.25–2 µM) | Inhibition of cancer cell proliferation ([1]; CaCo-2 cells, NRU) | Combined effect with DOX (combination index, CI) [5] | Combined effect with DOX at Fa > 0.8 ([5]; higher number of cells affected (Fa > 0.8)) | Effect on ROS formation, sesquiterpene alone [2] | Effect of DOX + sesquiterpene on ROS formation compared with DOX alone [2] | Effect on intracellular DOX concentration [6] | Enhancement of intracellular DOX concentration ([6]; sesquiterpene 50 µg/mL, DOX 6 µM, vs DOX alone) [times] | Hepatotoxicity / viability of hepatocytes [4] | Effect on DOX toxicity in hepatocytes at DOX 0.25 and 2 µM ([7]; DOX 0.25 and 2 µM + sesquiterpene) | IC50 ([1]; Caco-2, 72 h) [µg/mL] | Effect on DOX toxicity in hepatocytes at 0.5 µM DOX [7] | Effect on DOX toxicity in hepatocytes at other DOX concentrations [7] | Combined effect with DOX at lower Fa ([5]; lower fraction of affected cells) | Effect on DOX toxicity in hepatocytes ([7]; DOX 0.25–2 µM + sesquiterpene 6.125–50 µg/mL) |
| --- | --- | --- | --- | --- | --- | --- | --- | --- | --- | --- | --- | --- | --- | --- | --- | --- | --- | --- | --- |
| C=C(C)[C@@H]1CCC2=CCC[C@@H](C)[C@]2(C)C1 [VAL, valencene] |  |  |  |  |  | inhibited the proliferation of CaCo-2 cancer cells | significant synergistic effects with DOX |  | pro-oxidative effects | increase the pro-oxidative effect of DOX |  |  | none of tested sesquiterpenes showed hepatotoxicity |  | 38.1 ± 2.4 | increased DOX toxicity | did not influence DOX toxicity |  |  |
| C=CC(C)(O)CC/C=C(\C)CCC=C(C)C (racemic) [NER, (±)-trans-nerolidol] |  | 28.7 ± 2.5 |  |  |  | most effective; also recorded: inhibited the proliferation of CaCo-2 cancer cells | significant synergistic effects with DOX |  | strong antioxidant | significant antioxidant effect | more pronounced enhancement of DOX accumulation |  | none of tested sesquiterpenes showed hepatotoxicity |  |  | increased DOX toxicity | did not influence DOX toxicity | most synergistic effect on DOX |  |

Now from value to compound, other results behind:

| IC50 ([1]; CaCo-2 cells, 72-h incubation, NRU, DOX alone, read-out: IC50 (antiproliferative effect of DOX)) [nM] | IC50 [1, 8] [µg/mL] | Structure (SMILES) | Effect of DOX alone on ROS production ([2]; DOX 1 µM) | Effect of DOX alone on ROS production [3] | Hepatotoxicity of DOX alone ([4]; DOX 0.25–2 µM) | Inhibition of cancer cell proliferation ([1]; CaCo-2 cells, NRU) | Combined effect with DOX (combination index, CI) [5] | Combined effect with DOX at Fa > 0.8 ([5]; higher number of cells affected (Fa > 0.8)) | Effect on ROS formation, sesquiterpene alone [2] | Effect of DOX + sesquiterpene on ROS formation compared with DOX alone [2] | Effect on intracellular DOX concentration [6] | Enhancement of intracellular DOX concentration ([6]; sesquiterpene 50 µg/mL, DOX 6 µM, vs DOX alone) [times] | Hepatotoxicity / viability of hepatocytes [4] | Effect on DOX toxicity in hepatocytes at DOX 0.25 and 2 µM ([7]; DOX 0.25 and 2 µM + sesquiterpene) | IC50 ([1]; Caco-2, 72 h) [µg/mL] | Effect on DOX toxicity in hepatocytes at 0.5 µM DOX [7] | Effect on DOX toxicity in hepatocytes at other DOX concentrations [7] | Combined effect with DOX at lower Fa ([5]; lower fraction of affected cells) | Effect on DOX toxicity in hepatocytes ([7]; DOX 0.25–2 µM + sesquiterpene 6.125–50 µg/mL) |
| --- | --- | --- | --- | --- | --- | --- | --- | --- | --- | --- | --- | --- | --- | --- | --- | --- | --- | --- | --- |
| 1900 |  | COc1cccc2c1C(=O)c1c(O)c3c(c(O)c1C2=O)C[C@@](O)(C(=O)CO)C[C@@H]3O[C@H]1C[C@H](N)[C@H](O)[C@H](C)O1 [DOX, doxorubicin, reference compound] | increased ROS production | did not have a significant effect | marked hepatotoxicity |  |  |  |  |  |  |  |  |  |  |  |  |  |  |
|  | > 50 | C=C1CC[C@H]2O[C@]2(C)CC[C@@H]2[C@@H]1CC2(C)C [CAO, β-caryophyllene oxide] |  |  |  | inhibited the proliferation of CaCo-2 cancer cells | significant synergistic effects with DOX | strongest | pro-oxidative effects | increase the pro-oxidative effect of DOX | more pronounced enhancement of DOX accumulation | 3.6 | none of tested sesquiterpenes showed hepatotoxicity; also recorded: mildly increased the viability of hepatocytes in a concentration-dependent manner | significantly ameliorate DOX toxicity |  |  |  |  |  |
|  | 24.4 ± 2.4 | C/C1=C\CC/C(C)=C/CC(C)(C)/C=C/C1 [HUM, α-humulene] |  |  |  | most effective; also recorded: inhibited the proliferation of CaCo-2 cancer cells | acted rather additively |  | did not influence ROS formation |  |  |  | none of tested sesquiterpenes showed hepatotoxicity |  |  |  |  |  | did not affect DOX toxicity |
